Measurements reported in US20130072899A1, “Pharmaceutical Formulations for Iontophoretic Delivery of Gallium” (Nitric BloTherapeutics, Inc., priority 2008, published 2013).
Like-named read-outs stand apart in the source and are kept apart here.

Key:
[1] = Effect of speciation and ITP on gallium deposition within full thickness human skin; format: in vitro ADME
Method: An infinite dose skin deposition study was performed using full thickness human skin. Small Franz cells were constructed as previously described and the mass of skin section recorded. The Franz cells were set up with a receiver fluid of 0.05 M citric acid buffer (pH 5.0) and allowed to equilibrate for one hour. Donor solutions were prepared and 0.5 mL of each added to the appropriate Franz cell donor compartment. Each cell was subjected to either 60 min of ITP or an equivalent period of passive permeation. The cells were sacrificed after cither 60 min (directly after ITP, n=8) or after 25 h (24 h of permeation, n=8). […] The skin samples were removed and reweighed. […] The skin samples were then finely sliced using scissors, chilled and homogenised for five minutes using a T10 Ultra-Turax homogeniser (IKA werks, Staufen, Germany) using 30 second pulses. The scalpel blade, scissors, forceps and homogeniser blades were washed into the homogenate using PDCA mobile phase (five times concentrate) to minimise drug loss from the method. The skin-PDCA concentrate homogenate was allowed to mix for a further 24 h before being filtered using 0.45 μm, 30 mm cellulose acetate syringe filters (Orange Scientific, Braine l'Alleud, Belgium).

[2] = for specific binding affinity of human full thickness skin for gallium (mean): mean of samples A-E, nitrate hydrate
Method: Ten minutes of 400 μA iontophoresis was applied to all of the cells and 0.5 mL samples were removed after 0, 24, 28, 42, 65 and 70 h and replaced with receiver fluid. […] Samples of 0.5 mL were removed for LC ion-exchange assay after 0, 24, 28, 42, 52 and 70 h and replaced with receiver fluid. […] The skin samples were then finely sliced using scissors, chilled and homogenised for five minutes using a T10 Ultra-Turax homogeniser (IKA works, Staufen, Germany) using 30 second pulses. The scalpel, scissors, forceps and homogeniser blades were washed through using 10 mL of PDCA mobile phase concentrate as the extractant. […] The skin-PDCA concentrate homogenate was allowed to mix for a further 24 h before being filtered using 0.45 μm, 30 mm cellulose acetate syringe filters (Orange Scientific, Braine l'Alleud, Belgium).

[3] = Sample D, Ga delivered 0.395 mg
[4] = Sample E, Ga delivered 0.1975 mg

Question: What does the source list for `O=[N+]([O-])[O-].O=[N+]([O-])[O-].O=[N+]([O-])[O-].[Ga+3]` [gallium nitrate, Gallium (III) nitrate hydrate]?
Answer: ITP Ga skin deposition 24 h ([1]; Anodal, 60 min ITP then 24 h): 1.888±1.159 mg/cm^2; ITP Ga skin deposition 60 min ([1]; Anodal, 60 min of 615 μA/cm^2 ITP): 1.203±0.248 mg/cm^2; 60 min passive skin deposition ([1]; passive, 60 min): 0.288±0.258 mg/cm^2; % Ga recovery ([2]; Sample A, Ga delivered 2.4 mg): 97.1%; Binding ([2]; Sample A, Ga delivered 2.4 mg): 0.138 mg/g; Ga bound to skin ([2]; Sample A, Ga delivered 2.4 mg): 0.07 mg; Ga recovered ([2]; Sample A, Ga delivered 2.4 mg): 2.33 mg; % Ga recovery ([2]; Sample B, Ga delivered 1.6 mg): 92.5%; Binding ([2]; Sample B, Ga delivered 1.6 mg): 0.178 mg/g; Ga bound to skin ([2]; Sample B, Ga delivered 1.6 mg): 0.12 mg; Ga recovered ([2]; Sample B, Ga delivered 1.6 mg): 1.48 mg; % Ga recovery ([2]; Sample C, Ga delivered 0.79 mg): 87.3%; Binding ([2]; Sample C, Ga delivered 0.79 mg): 0.193 mg/g; Ga bound to skin ([2]; Sample C, Ga delivered 0.79 mg): 0.1 mg; Ga recovered ([2]; Sample C, Ga delivered 0.79 mg): 0.69 mg; % Ga recovery [2, 3]: 73.4%; Binding [2, 3]: 0.197 mg/g; Ga bound to skin [2, 3]: 0.105 mg; Ga recovered [2, 3]: 0.29 mg; % Ga recovery [2, 4]: 60.8%; Binding [2, 4]: 0.151 mg/g; Ga bound to skin [2, 4]: 0.0775 mg; Ga recovered [2, 4]: 0.12 mg; specific binding affinity of human full thickness skin for gallium (mean) ([2]; listed as Ga): 0.171 mg/g; specific binding affinity of human full thickness skin for gallium (mean) [2]: 0.17 ± 0.03 mg/g
